From EP3388430A1, “COMPOUND, COMPOUND FOR USE IN THE TREATMENT OF A PATHOLOGICAL CONDITION, A PHARMACEUTICAL COMPOSITION AND A METHOD FOR PREPARING SAID COMPOUND” (Technische Universität München, priority 2017, dated 2018)

Experiments:
[1] = biological target: T1, EphA2 (Homo sapiens, UniProt P29317); test: Chemical proteomic affinity matrix competition binding in cell lysate (Kd app, CATDS); conditions: CATDS (EphA2) at the concentration corresponding to the Kd app for EphA2; compared with dasatinib
T1 construct: enrichment of ATP-pocket containing proteins (mainly kinases) from complex native cell lysates; endogenous in cells; host or cells: native cell lysate
Source text: Several of the compounds according to the invention were further evaluated by a chemical proteomic approach facilitating the identification and quantification of drug-protein interactions. This technology utilizes an affinity matrix comprising five immobilized broad spectrum kinase inhibitors for enrichment of ATP-pocket containing proteins (mainly kinases) from complex native cell lysates as described in Bantscheff et al, Nat Biotechnol., 2007, 25(9):1035-44 and Médard et al, L Proteome Res., 2015, 14(3):1574-86. Coupled to quantitative mass spectrometry readout, this chemical proteomic approach allows for the simultaneous identification and quantification of about 300 native human protein kinases. […]
The compounds according to the invention were tested in nine different concentrations (including a DMSO control) ranging from 3 nM to 30 µM. […] Compound selectivity was determined by calculation of a selectivity score named CATDS (concentration and target dependent selectivity). […] It is calculated by dividing the target binding of the target protein (in this case EphA2) by the sum of all target bindings (including the target protein of interest, in this case EphA2) at a particular concentration (in this case the concentration corresponding to the Kd^app value of a compound for EphA2). […]

[2] = system: SF-268 cells; test: SF-268 cell viability, resazurin-based assay; conditions: Homo sapiens, SF-268, 72 h; three days of treatment; three biological and three technical replicates, Fig. 8; read-out: cellular potency (EC50), SF-268 cell viability
Procedure: The dependency of viability of SF-268 cells on EphA2 expression was validated by siRNA knockdown experiments. SF-268 cells were treated with four siRNAs targeting EphA2 expression independently and a mixture of the four siRNAs. Experiments were performed in three biological and three technical replicates. Cell death siRNA and scrambled siRNA were used as positive and negative controls. After six days of treatment, cellular viability was determined by a resazurin-based assay system measuring the reduction of resazurin as a function of metabolic activity.
Cellular potency was determined as EC50 value after three days of treatment using the above mentioned resazurin-based assay system in three biological and three technical replicates.

T1 sequence (P29317 24-976): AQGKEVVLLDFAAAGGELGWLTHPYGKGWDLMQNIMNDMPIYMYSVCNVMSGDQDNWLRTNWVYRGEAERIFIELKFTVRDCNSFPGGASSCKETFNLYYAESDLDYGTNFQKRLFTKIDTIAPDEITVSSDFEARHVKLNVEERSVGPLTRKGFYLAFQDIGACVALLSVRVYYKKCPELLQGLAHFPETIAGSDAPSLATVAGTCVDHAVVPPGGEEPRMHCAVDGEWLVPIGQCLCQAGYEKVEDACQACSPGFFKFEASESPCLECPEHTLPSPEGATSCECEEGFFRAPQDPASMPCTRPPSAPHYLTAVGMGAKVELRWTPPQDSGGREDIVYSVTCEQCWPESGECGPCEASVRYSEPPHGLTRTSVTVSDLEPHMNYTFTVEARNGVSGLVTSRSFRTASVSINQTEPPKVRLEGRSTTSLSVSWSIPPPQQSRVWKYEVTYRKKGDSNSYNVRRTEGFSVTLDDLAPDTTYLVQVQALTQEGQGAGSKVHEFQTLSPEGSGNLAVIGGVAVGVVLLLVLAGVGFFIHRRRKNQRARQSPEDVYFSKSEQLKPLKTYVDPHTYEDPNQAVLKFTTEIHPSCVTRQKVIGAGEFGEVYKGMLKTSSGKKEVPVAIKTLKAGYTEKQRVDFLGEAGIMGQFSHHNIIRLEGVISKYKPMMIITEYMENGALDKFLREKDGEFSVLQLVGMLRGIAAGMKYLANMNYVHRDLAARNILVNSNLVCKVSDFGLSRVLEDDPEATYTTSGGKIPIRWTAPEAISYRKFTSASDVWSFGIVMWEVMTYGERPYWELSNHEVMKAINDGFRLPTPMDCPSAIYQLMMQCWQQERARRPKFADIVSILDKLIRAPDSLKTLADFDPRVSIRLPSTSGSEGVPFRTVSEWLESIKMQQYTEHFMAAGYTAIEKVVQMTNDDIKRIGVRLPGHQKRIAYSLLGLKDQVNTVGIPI

Row | selectivity for EphA2 binding (CATDS) [1] | SMILES | EC50 [2]
1 | improved selectivity | Cc1cccc(Cl)c1NC(=O)c1cnc(Nc2cccc(C(=O)NC3CCNCC3(F)F)c2)s1 (stereo not shown) [Compound 28, N-(2-chloro-6-methylphenyl)-2-((3-((3,3-difluoropiperidin-4-yl)carbamoyl)phenyl)amino)thiazole-5-carboxamide] | –
2 | improved selectivity | Cc1cccc(Cl)c1NC(=O)c1cnc(Nc2cc(N3CCOCC3)cc(N3CCOCC3)c2)s1 [Compound 40, N-(2-chloro-6-methylphenyl)-2-((3,5-dimorpholinophenyl)amino)thiazole-5-carboxamide] | 94 nM
3 | – | Cc1cccc(Cl)c1NC(=O)c1cnc(Nc2cc(N3CCOCC3)cc(S(C)(=O)=O)c2)s1 [Compound 41, N-(2-chloro-6-methylphenyl)-2-((3-(methylsulfonyl)-5-morpholinophenyl)amino)thiazole-5-carboxamide] | 504 nM
